From patent US20170334899A1, “AMINO-SUBSTITUTED ISOTHIAZOLES” (Bayer Pharma Aktiengesellschaft, priority 2014, published 2017)

Key:
CDK2/CycE = molecular target: T1, CDK2/CycE (Homo sapiens, UniProt P24941); assay: CDK2/CycE kinase assay (TR-FRET); type: biochemical; settings: avg, read-out: CDK2 avg (IC50 [mol/l])
T1 construct: GST; purchased ProQinase GmbH (Freiburg, Germany); host or cells: insect cells (Sf9)
Excerpt: CDK2/CycE -inhibitory activity of compounds of the present invention was quantified employing the CDK2/CycE TR-FRET assay as described in the following paragraphs.
Recombinant fusion proteins of GST and human CDK2 and of GST and human CycE, expressed in insect cells (Sf9) and purified by Glutathion-Sepharose affinity chromatography, were purchased from ProQinase GmbH (Freiburg, Germany). As substrate for the kinase reaction biotinylated peptide biotin-Ttds-YISPLKSPYKISEG (C-terminus in amid form) was used which can be purchased e.g. form the company JERINI peptide technologies (Berlin, Germany).
For the assay 50 nl of a 100fold concentrated solution of the test compound in DMSO was pipetted into a black low volume 384we11 microtiter plate (Greiner Bio-One, Frickenhausen, Germany), 2 μl of a solution of CDK2/CycE in aqueous assay buffer [50 mM Tris/HCl pH 8.0, 10 mM MgCl2, 1.0 mM dithiothreitol, 0.1 mM sodium ortho-vanadate, 0.01% (v/v) Nonidet-P40 (Sigma)] were added and the mixture was incubated for 15 min at 22° C. to allow pre-binding of the test compounds to the enzyme before the start of the kinase reaction. Then the kinase reaction was started by the addition of 3 μl of a solution of adenosine-tri-phosphate (ATP, 16.7 μM=>final conc. in the 5 μl assay volume is 10 μM) and substrate (1.25 μM=>final conc. in the 5 μl assay volume is 0.75 μM) in assay buffer and the resulting mixture was incubated for a reaction time of 25 min at 22° C. The concentration of CDK2/CycE was adjusted depending of the activity of the enzyme lot and was chosen appropriate to have the assay in the linear range, typical concentrations were in the range of 130 ng/ml. The reaction was stopped by the addition of 5 μl of a solution of TR-FRET detection reagents (0.2 μM streptavidine-XL665 [Cisbio Bioassays, Codolet, France] and 1 nM anti-RB(pSer807/pSer811)-antibody from BD Pharmingen [#558389] and 1.2 nM LANCE EU-W1024 labeled anti-mouse IgG antibody [Perkin-Elmer, product no. AD0077, as an alternative a Terbium-cryptate-labeled anti-mouse IgG antibody from Cisbio Bioassays can be used]) in an aqueous EDTA-solution (100 mM EDTA, 0.2% (w/v) bovine serum albumin in 100 mM HEPES/NaOH pH 7.0).
(§1) The resulting mixture was incubated 1 h at 22° C. to allow the formation of complex between the phosphorylated biotinylated peptide and the detection reagents. Subsequently the amount of phosphorylated substrate was evaluated by measurement of the resonance energy transfer from the Eu-chelate to the streptavidine-XL. Therefore, the fluorescence emissions at 620 nm and 665 nm after excitation at 350 nm was measured in a TR-FRET reader, e.g. a Rubystar (BMG Labtechnologies, Offenburg, Germany) or a Viewlux (Perkin-Elmer). The ratio of the emissions at 665 nm and at […] was taken as the measure for the amount of phosphorylated substrate. The data were normalised (enzyme reaction without inhibitor=0% inhibition, all other assay components but no enzyme=100% inhibition).

[1] = molecular target: T2, catalytic domain of human Bub1 (amino acids 704-1085) (Homo sapiens, UniProt O43683); assay: Bub1 kinase assay (TR-FRET); type: biochemical; settings: 10 μM ATP, avg, read-out: Bub1 avg (IC50 [mol/l])
T2 construct: catalytic domain of human Bub1 (amino acids 704-1085); His6 (N); made in house; host or cells: insect cells (Hi5)
T2 sequence (O43683 704-1085): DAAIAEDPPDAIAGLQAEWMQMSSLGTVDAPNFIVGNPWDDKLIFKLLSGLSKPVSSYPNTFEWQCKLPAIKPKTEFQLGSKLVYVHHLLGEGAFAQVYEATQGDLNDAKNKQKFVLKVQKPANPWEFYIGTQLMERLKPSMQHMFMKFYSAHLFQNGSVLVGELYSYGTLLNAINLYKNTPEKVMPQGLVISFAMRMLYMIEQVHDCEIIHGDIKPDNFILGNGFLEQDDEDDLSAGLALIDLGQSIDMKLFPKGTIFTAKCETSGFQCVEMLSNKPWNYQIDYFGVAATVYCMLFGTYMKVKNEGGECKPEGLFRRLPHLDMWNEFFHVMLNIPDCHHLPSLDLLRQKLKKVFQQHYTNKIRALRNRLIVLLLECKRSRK
Excerpt: Bub1-inhibitory activity of compounds of the present invention was quantified employing the Bub1 TR-FRET assay as described in the following paragraphs.
N-terminally His6-tagged recombinant catalytic domain of human Bub1 (amino acids 704-1085), expressed in insect cells (Hi5) and purified by Ni-NTA affinity chromatography and subsequent size exclusion chromatography, was used as enzyme. As substrate for the kinase reaction the biotinylated peptide biotin-Ahx-VLLPKKSFAEPG (C-terminus in amid form) was used which can be purchased e.g. form the company Biosyntan (Berlin, Germany).
For the assay 50 nl of a 100fold concentrated solution of the test compound in DMSO was pipetted into a black low volume 384well microtiter plate (Greiner Bio-One, Frickenhausen, Germany), 2 μl of a solution of Bub1 in aqueous assay buffer [50 mM Tris/HCl pH 7.5, 10 mM magnesium chloride (MgCl2), 200 mM potassium chloride (KCl), 1.0 mM dithiothreitol (DTT), 0.1 mM sodium ortho-vanadate, 1% (v/v) glycerol, 0.01% (w/v) bovine serum albumine (BSA), 0.005% (v/v) Trition X-100 (Sigma), 1× Complete EDTA-free protease inhibitor mixture (Roche)] were added and the mixture was incubated for 15 min at 22° C. to allow pre-binding of the test compounds to the enzyme before the start of the kinase reaction. Then the kinase reaction was started by the addition of 3 μl of a solution of adenosine-tri-phosphate (ATP, 16.7 μM=>final conc. in the 5 μl assay volume is 10 μM) and substrate (1.67 μM=>final conc. in the 5 μl assay volume is 1 μM) in assay buffer and the resulting mixture was incubated for a reaction time of 60 min at 22° C. The concentration of Bub1 was adjusted depending of the activity of the enzyme lot and was chosen appropriate to have the assay in the linear range, typical concentrations were in the range of 200 ng/ml. The reaction was stopped by the addition of 5 μl of a solution of TR-FRET detection reagents (0.2 μM streptavidine-XL665 [Cisbio Bioassays, Codolet, France] and 1 nM anti-phosho-Serine antibody [Merck Millipore, cat. #35-001] and 0.4 nM LANCE EU-W1024 labeled anti-mouse IgG antibody [Perkin-Elmer, product no. AD0077, as an alternative a Terbium-cryptate-labeled anti-mouse IgG antibody from Cisbio Bioassays can be used]) in an aqueous EDTA-solution (50 mM EDTA, 0.2% (w/v) bovine serum albumin in 100 mM HEPES pH 7.5).
as §1, with “or Pherastar (both from BMG” for “(BMG”

SMILES | IC50 (CDK2/CycE) | IC50 [1]
Cc1nsc(Nc2cnc(C(F)(F)F)cn2)c1C(=O)Nc1ccc(OC[C@H]2CCN(CC(F)(F)F)C2)nc1 (racemic) [Example 133, 3-Methyl-N-(6-{[(SR)-1-(2,2,2-trifluoroethyl)pyrrolidin-3-yl]methoxy}pyridin-3-yl)-5-{[5-(trifluoromethyl)pyrazin-2-yl]amino}-1,2-thiazole-4-carboxamide] | > 20 µM | > 20 µM
Cc1nsc(Nc2cnc(C(F)(F)F)cn2)c1C(=O)Nc1ccc(OC2CCNCC2)nc1 [Example 6, 3-Methyl-N-[6-(piperidin-4-yloxy)pyridin-3-yl]-5-{[5-(trifluoromethyl)pyrazin-2-yl]amino}-1,2-thiazole-4-carboxamide] | ≥ 20 µM | ≥ 20 µM
Cc1nsc(Nc2cnc(C(F)(F)F)cn2)c1C(=O)Nc1ccc(OC2CCN(CCF)CC2)nc1 [Example 7, N-(6-{[1-(2-Fluoroethyl)piperidin-4-yl]oxy}pyridin-3-yl)-3-methyl-5-{[5-(trifluoromethyl)pyrazin-2-yl]amino}-1,2-thiazole-4-carboxamide] | ≥ 20 µM | ≥ 20 µM
Cc1nsc(Nc2cnc(C(F)(F)F)cn2)c1C(=O)Nc1ccc(OC2CCN(CC(F)F)CC2)nc1 [Example 8, N-(6-{[1-(2,2-Difluoroethyl)piperidin-4-yl]oxy}pyridin-3-yl)-3-methyl-5-{[5-(trifluoromethyl)pyrazin-2-yl]amino}-1,2-thiazole-4-carboxamide] | ≥ 20 µM | ≥ 20 µM
Cc1nsc(Nc2cnc(C(F)(F)F)cn2)c1C(=O)Nc1ccc(OC2CCN(CC(F)(F)F)CC2)nc1 [Example 9, -Methyl-N-(6-{[1-(2,2,2-trifluoroethyl)piperidin-4-yl]oxy}pyridin-3-yl)-5-{[5-(trifluoromethyl)pyrazin-2-yl]amino}-1,2-thiazole-4-carboxamide] | ≥ 20 µM | ≥ 20 µM
Cc1nsc(Nc2cnc(C(F)(F)F)cn2)c1C(=O)Nc1ccc(OC2CCN(CCC(F)(F)F)CC2)nc1 [Example 10, 3-Methyl-5-{[5-(trifluoromethyl)pyrazin-2-yl]amino}-N-(6-{[1-(3,3,3-trifluoropropyl)-piperidin-4-yl]oxy}pyridin-3-yl)-1,2-thiazole-4-carboxamide] | ≥ 20 µM | ≥ 20 µM
CC(=O)N1CCC(Oc2ccc(NC(=O)c3c(C)nsc3Nc3cnc(C(F)(F)F)cn3)cn2)CC1 [Example 11, N-{6-[(1-Acetylpiperidin-4-yl)oxy]pyridin-3-yl}-3-methyl-5-{[5-(trifluoromethyl)-pyrazin-2-yl]amino}-1,2-thiazole-4-carboxamide] | ≥ 20 µM | ≥ 20 µM
Cc1nsc(Nc2cncc(C(F)(F)F)n2)c1C(=O)Nc1ccc(OC2CCN(C(=O)OC(C)(C)C)CC2)nc1 [Example 12, tert-Butyl 4-[(5-{[(3-methyl-5-{[6-(trifluoromethyl)pyrazin-2-yl]amino}-1,2-thiazol-4-yl)carbonyl]amino}pyridin-2-yl)oxy]piperidine-1-carboxylate] | ≥ 20 µM | ≥ 20 µM
Cc1nsc(Nc2cnc(C(F)(F)F)cn2)c1C(=O)Nc1ccc(C(=O)OC(C)(C)C)cc1 [Example 96, tert-Butyl 4-{[(3-methyl-5-{[5-(trifluoromethyl)pyrazin-2-yl]amino}-1,2-thiazol-4-yl)carbonyl]amino}benzoate] | ≥ 20 µM | ≥ 20 µM
Cc1nsc(Nc2cnc(C(F)(F)F)cn2)c1C(=O)Nc1ccc(C(=O)O)cc1 [Example 97, 4-{[(3-Methyl-5-{[5-(trifluoromethyl)pyrazin-2-yl]amino}-1,2-thiazol-4-yl)carbony]-amino}benzoic acid] | ≥ 20 µM | 2.9 µM
Cc1nsc(Nc2ccc(C#N)cn2)c1C(=O)Nc1ccc(C(=O)OC(C)(C)C)cc1 [Example 98, tert-Butyl 4-[({5-[(5-cyanopyridin-2-yl)amino]-3-methyl-1,2-thiazol-4-yl}carbonyl)-amino]benzoate] | ≥ 20 µM | ≥ 20 µM
Cc1nsc(Nc2cnc(C(F)(F)F)cn2)c1C(=O)Nc1ccc(OCC2CCN(CCF)C2)nc1 (centres unmarked) [Example 121, N-(6-{[1-(2-fluoroethyl)pyrrolidin-3-yl]methoxy}pyridin-3-yl)-3-methyl-5-{[5-(trifluoromethyl)pyrazin-2-yl]amino}-1,2-thiazole-4-carboxamide] |  | ≥ 20 µM
Cc1nsc(Nc2cnc(C(F)(F)F)cn2)c1C(=O)Nc1ccc(O[C@@H]2CCN(CC(F)(F)F)C2)nc1 [Example 421, 3-Methyl-N-(6-{[(3R)-1-(2,2,2-trifluoroethyl)pyrrolidin-3-yl]oxy}pyridin-3-yl)-5-{[5-(trifluoromethyl)pyrazin-2-yl]amino}-1,2-thiazole-4-carboxamide] |  | ≥ 20 µM
Cc1nsc(Nc2cnc(C(F)(F)F)cn2)c1C(=O)Nc1ccc(OC[C@@H]2CCCN(CCC(F)(F)F)C2)nc1 [Example 422, 3-Methyl-5-{[5-(trifluoromethyl)pyrazin-2-yl]amino}-N-(6-{[(3R)-1-(3,3,3-trifluoropropyl)piperidin-3-yl]methoxy}pyridin-3-yl)-1,2-thiazole-4-carboxamide] |  | ≥ 20 µM
Cc1nsc(Nc2cnc(C(F)(F)F)cn2)c1C(=O)Nc1ccc(O[C@@H]2CCN(CCC(F)(F)F)C2)nc1 [Example 423, 3-Methyl-5-{[5-(trifluoromethyl)pyrazin-2-yl]amino}-N-(6-{[(3R)-1-(3,3,3-trifluoropropyl)pyrrolidin-3-yl]oxy}pyridin-3-yl)-1,2-thiazole-4-carboxamide] |  | ≥ 20 µM
